In the assay the test system is HepG2. Put plainly: Cytotoxicity against human HepG2 cells assessed as cell viability up to 100 uM after 48 hrs by CCK-8 assay. It is filed as functional, cell-based. A general note: Tetrazolium assays rely on reduction of a dye to a coloured formazan, in cell work by metabolically active cells.

This passage reports Activity results from ChEMBL document CHEMBL3596141, “Isolation and Structure Elucidation of Fujikurins A-D: Products of the PKS19 Gene Cluster in Fusarium fujikuroi” (J Nat Prod, 2015).

Calls of active or inactive are those of the source. The rule behind the calls is not given here.

In the case of `CCC(C)C(=O)C1=C(O)C(C)C(C)OC1=O` (stereo unspecified), the result was inactive.
